ChEMBL document CHEMBL5247683 (ACS Med Chem Lett, 2023)

How the values were obtained:
[1] = target: T1, Tyrosine-protein kinase JAK3 (Homo sapiens, UniProt P52333); test: Inhibition of GST-fused JAK3 (811 to 1124 residues) (unknown origin) using Carboxyfluorescein-Ahx-GGEEEEYFELVKKKK peptide as substrate incubated for 60 mins in presence of ATP by Janus kinase assay
T1 sequence (P52333 whole entry): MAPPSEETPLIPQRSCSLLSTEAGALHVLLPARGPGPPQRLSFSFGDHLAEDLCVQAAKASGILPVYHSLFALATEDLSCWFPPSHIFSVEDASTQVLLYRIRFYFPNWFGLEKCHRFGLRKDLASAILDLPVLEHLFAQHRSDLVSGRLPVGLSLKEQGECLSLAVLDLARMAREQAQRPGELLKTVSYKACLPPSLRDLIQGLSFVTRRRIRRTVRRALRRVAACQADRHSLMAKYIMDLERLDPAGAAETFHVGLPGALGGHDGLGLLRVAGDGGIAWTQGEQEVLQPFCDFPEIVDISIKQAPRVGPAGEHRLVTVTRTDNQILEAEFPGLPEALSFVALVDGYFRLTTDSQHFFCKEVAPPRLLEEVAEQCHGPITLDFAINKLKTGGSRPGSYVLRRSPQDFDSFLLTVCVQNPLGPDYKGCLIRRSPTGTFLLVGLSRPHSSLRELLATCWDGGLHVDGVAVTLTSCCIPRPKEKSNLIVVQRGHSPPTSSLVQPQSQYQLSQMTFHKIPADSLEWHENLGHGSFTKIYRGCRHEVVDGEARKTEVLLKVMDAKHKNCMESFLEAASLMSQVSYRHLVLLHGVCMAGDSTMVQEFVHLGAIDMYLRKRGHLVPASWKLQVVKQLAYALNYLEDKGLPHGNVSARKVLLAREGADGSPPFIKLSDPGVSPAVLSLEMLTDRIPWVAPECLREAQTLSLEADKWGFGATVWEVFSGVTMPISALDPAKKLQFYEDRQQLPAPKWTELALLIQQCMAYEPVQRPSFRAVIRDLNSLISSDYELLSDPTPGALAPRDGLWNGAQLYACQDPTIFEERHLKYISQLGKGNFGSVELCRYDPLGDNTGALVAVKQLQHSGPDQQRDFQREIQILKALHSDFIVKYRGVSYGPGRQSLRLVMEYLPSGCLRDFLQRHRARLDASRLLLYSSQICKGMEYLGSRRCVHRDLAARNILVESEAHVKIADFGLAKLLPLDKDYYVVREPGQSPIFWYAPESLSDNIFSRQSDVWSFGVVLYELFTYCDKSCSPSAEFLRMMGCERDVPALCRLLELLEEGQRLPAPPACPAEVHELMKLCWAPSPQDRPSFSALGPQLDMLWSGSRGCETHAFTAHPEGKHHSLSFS

[2] = target: Tyrosine-protein kinase JAK1 (Homo sapiens, UniProt P23458); test: Inhibition of GST-fused JAK1 (866 to 1154 residues) (unknown origin) using FITC-AhxKKSRGDYMTMQIG-NH2 peptide as substrate incubated for 60 mins in presence of ATP by Janus kinase assay
JAK3/JAK1 [3] = target: T2, JAK3/JAK1 (Homo sapiens, UniProt P23458+P52333); format: tissue-based, Blood
Description: Inhibition of JAK1/JAK3 in human blood assessed as reduction of IL-2 stimulated STAT phosphorylation preincubated for 30 mins followed by IL-2 stimulation for 15 mins by flow cytometry method

[4] = target: Tyrosine-protein kinase JAK2 (Homo sapiens, UniProt O60674); test: Inhibition of GST-fused JAK2 (808 to 1132 residues) (unknown origin) using Carboxyfluorescein-Ahx-GGEEEEYFELVKKKK peptide as substrate incubated for 60 mins in presence of ATP by Janus kinase assay
JAK1/TYK2 = JAK1/TYK2 (Homo sapiens, UniProt P23458+P29597); test: Inhibition of JAK1/TYK2 in human M07E cells assessed as reduction of IFN alpha stimulated STAT phosphorylation preincubated for 30 mins followed by IFN alpha stimulation for 15 mins by flow cytometry method; format: cell-based
JAK3/JAK1 [5] = target: T2, JAK3/JAK1; test: Inhibition of JAK1/JAK3 in human M07E cells assessed as reduction of IL-15 stimulated STAT phosphorylation preincubated for 30 mins followed by IL-15 stimulation for 15 mins by flow cytometry method; format: cell-based
[6] = target: Non-receptor tyrosine-protein kinase TYK2 (Homo sapiens, UniProt P29597); test: Inhibition of GST-fused Tyk2 (888 to 1187 residues) (unknown origin) using FITC-AhxKKSRGDYMTMQIG-NH2 peptide as substrate incubated for 60 mins in presence of ATP by Janus kinase assay
[7] = Dissociation constant, pKa of compound; format: physicochemical
[8] = target: Glycogen synthase kinase-3 beta (Homo sapiens, UniProt P49841); test: Inhibition of GSK3B (unknown origin)
[9] = target: T3, Receptor-type tyrosine-protein kinase FLT3 (Homo sapiens, UniProt P36888); test: Inhibition of FLT3 (unknown origin)
T3 sequence (P36888 whole entry): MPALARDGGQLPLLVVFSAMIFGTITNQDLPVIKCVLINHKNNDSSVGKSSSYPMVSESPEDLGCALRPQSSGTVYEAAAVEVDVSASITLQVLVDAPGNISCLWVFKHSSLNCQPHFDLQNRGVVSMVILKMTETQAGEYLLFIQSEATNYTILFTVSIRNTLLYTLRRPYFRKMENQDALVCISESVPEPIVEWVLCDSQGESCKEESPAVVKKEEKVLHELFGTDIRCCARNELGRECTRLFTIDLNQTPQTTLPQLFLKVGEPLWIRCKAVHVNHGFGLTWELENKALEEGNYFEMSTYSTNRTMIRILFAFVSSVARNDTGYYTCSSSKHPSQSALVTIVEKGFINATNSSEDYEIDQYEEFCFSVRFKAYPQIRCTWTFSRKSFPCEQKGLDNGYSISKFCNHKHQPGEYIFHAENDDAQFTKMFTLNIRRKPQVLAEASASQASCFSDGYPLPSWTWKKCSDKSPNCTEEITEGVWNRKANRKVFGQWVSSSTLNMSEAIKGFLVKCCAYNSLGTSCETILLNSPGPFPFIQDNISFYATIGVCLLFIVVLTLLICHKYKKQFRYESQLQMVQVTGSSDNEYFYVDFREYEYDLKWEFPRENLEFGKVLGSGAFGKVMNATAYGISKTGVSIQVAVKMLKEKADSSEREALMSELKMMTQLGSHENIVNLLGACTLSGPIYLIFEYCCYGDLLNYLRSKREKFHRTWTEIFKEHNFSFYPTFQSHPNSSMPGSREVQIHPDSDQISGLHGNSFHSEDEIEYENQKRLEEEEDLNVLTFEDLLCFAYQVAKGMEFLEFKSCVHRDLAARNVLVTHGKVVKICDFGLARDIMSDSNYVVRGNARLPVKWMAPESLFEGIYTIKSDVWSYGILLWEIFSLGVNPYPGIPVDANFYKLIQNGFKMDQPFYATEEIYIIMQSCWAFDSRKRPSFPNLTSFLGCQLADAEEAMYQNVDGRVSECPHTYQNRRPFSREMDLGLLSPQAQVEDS

Aurora kinase A = target: T4, Aurora kinase A (Homo sapiens, UniProt O14965); test: Inhibition of AuroraA (unknown origin)
T4 sequence (O14965 whole entry): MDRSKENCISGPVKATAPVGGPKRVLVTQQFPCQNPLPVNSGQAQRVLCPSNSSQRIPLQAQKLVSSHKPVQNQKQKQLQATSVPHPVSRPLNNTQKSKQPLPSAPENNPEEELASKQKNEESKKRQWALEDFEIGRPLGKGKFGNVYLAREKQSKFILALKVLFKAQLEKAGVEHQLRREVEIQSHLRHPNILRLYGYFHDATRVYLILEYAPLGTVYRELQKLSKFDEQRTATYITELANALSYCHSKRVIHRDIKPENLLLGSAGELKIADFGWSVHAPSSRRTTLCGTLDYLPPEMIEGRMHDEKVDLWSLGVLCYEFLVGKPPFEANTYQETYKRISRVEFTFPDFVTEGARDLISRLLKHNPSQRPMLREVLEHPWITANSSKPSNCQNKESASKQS

[10] = target: T5, Interleukin-1 receptor-associated kinase 4 (Homo sapiens, UniProt Q9NWZ3); test: Inhibition of IRAK4 (unknown origin)
T5 sequence (Q9NWZ3 whole entry): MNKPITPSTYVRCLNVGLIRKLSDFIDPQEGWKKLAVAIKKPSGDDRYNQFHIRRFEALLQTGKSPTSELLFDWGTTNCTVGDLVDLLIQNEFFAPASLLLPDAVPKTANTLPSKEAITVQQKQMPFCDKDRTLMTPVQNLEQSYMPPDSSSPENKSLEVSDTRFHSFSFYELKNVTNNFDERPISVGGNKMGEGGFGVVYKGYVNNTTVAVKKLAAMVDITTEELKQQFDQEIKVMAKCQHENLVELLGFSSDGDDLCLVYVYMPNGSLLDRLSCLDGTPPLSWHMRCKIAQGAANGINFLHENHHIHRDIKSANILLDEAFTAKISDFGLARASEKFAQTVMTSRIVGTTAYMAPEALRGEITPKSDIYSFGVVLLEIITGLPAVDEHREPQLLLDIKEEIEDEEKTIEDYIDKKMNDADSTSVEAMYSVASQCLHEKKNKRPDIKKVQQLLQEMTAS

[11] = Inhibition of p70S6K (unknown origin); design: species or system Homo sapiens
[12] = target: Tyrosine-protein kinase Lck (Homo sapiens, UniProt P06239); test: Inhibition of LCK (unknown origin)
[13] = target: Vascular endothelial growth factor receptor 2 (Homo sapiens, UniProt P35968); test: Inhibition of KDR (unknown origin)
[14] = target: T6, Serine/threonine-protein kinase 4 (Homo sapiens, UniProt Q13043); test: Inhibition of STK4 (unknown origin)
T6 sequence (Q13043 whole entry): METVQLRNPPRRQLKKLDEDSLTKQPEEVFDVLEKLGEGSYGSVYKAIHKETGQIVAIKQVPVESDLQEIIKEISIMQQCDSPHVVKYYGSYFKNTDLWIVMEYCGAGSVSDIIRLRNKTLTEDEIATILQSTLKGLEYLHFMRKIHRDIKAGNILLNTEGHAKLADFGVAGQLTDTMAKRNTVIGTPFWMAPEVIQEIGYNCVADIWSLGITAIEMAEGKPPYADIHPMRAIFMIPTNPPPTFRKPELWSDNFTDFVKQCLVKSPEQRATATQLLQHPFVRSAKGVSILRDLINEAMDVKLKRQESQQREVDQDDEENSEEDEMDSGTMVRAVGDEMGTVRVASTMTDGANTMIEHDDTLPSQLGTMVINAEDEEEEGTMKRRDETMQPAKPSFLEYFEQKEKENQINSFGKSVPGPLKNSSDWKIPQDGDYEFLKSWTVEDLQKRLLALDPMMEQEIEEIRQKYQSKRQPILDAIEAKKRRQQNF

in vitro = conditions: human, liver microsomes
Description: Intrinsic clearance in human liver microsomes

Tyrosine-protein kinase JAK1, sequence (P23458 whole entry, the tested form may be a part): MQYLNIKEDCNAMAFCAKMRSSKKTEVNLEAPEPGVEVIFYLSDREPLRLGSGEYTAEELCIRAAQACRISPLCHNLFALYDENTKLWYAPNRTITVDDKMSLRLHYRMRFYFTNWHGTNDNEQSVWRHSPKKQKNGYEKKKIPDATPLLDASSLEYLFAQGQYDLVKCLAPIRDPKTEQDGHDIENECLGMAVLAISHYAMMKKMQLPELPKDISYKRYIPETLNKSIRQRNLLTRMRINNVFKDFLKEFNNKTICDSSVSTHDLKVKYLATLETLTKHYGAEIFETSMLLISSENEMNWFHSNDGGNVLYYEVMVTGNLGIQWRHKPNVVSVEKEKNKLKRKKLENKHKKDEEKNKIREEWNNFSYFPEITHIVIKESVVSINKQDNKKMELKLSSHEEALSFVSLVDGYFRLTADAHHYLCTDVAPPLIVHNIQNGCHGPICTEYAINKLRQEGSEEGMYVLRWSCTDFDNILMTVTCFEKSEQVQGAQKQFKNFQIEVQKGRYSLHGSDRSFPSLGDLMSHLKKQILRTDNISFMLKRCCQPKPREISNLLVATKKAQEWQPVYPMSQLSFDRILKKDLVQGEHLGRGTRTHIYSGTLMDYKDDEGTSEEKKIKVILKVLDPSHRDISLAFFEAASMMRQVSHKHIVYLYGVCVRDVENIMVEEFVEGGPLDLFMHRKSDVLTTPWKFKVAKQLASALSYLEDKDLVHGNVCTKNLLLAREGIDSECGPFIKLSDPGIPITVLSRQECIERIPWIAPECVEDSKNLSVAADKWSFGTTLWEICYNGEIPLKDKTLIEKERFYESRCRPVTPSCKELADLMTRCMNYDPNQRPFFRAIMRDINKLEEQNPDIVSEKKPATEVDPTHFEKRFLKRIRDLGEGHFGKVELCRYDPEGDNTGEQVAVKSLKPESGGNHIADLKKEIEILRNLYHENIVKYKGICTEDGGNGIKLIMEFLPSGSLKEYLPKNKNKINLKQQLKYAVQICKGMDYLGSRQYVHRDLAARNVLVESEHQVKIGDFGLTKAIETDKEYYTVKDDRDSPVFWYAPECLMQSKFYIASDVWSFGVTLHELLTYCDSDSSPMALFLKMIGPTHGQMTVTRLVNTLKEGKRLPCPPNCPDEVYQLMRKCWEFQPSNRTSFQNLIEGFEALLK
JAK1/TYK2, sequence (P23458 whole entry): as the sequence (P23458 whole entry, the tested form may be a part) above
JAK1/TYK2, sequence (P29597 whole entry): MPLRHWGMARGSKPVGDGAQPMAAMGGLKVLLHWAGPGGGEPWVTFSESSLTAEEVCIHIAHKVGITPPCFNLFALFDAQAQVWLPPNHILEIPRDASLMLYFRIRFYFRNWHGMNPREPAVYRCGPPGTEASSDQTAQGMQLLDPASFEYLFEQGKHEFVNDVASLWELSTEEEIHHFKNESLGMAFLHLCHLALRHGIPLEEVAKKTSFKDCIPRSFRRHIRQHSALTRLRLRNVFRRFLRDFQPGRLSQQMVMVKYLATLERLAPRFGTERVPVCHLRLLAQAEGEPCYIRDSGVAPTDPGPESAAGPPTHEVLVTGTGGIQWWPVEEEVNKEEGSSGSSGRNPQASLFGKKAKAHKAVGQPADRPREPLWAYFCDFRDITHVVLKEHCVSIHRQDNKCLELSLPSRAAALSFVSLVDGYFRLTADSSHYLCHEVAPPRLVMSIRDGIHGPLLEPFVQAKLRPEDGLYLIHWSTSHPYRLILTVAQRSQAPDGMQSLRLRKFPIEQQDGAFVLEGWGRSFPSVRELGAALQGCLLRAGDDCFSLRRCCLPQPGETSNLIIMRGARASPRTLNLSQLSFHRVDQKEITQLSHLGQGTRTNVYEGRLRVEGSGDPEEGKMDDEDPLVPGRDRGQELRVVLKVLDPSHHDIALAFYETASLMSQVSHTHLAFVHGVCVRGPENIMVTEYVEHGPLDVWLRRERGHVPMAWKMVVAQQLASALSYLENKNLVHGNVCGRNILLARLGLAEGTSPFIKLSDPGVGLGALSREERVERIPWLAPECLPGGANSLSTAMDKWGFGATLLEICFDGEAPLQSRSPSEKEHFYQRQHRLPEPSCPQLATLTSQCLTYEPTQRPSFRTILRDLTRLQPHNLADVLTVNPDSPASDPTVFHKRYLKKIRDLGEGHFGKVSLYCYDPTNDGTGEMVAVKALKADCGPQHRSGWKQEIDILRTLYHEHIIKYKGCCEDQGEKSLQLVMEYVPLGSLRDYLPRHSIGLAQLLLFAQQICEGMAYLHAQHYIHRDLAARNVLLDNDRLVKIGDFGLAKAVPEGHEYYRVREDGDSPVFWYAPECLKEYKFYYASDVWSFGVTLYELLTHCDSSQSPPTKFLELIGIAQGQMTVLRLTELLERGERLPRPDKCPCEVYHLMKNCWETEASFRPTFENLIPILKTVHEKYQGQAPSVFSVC
Non-receptor tyrosine-protein kinase TYK2, sequence (P29597 whole entry, the tested form may be a part): as the sequence (P29597 whole entry) above
T2 sequence (P23458 whole entry, one chain of several, the tested form may be a part): as the sequence (P23458 whole entry, the tested form may be a part) above
Tyrosine-protein kinase JAK2, sequence (O60674 whole entry, the tested form may be a part): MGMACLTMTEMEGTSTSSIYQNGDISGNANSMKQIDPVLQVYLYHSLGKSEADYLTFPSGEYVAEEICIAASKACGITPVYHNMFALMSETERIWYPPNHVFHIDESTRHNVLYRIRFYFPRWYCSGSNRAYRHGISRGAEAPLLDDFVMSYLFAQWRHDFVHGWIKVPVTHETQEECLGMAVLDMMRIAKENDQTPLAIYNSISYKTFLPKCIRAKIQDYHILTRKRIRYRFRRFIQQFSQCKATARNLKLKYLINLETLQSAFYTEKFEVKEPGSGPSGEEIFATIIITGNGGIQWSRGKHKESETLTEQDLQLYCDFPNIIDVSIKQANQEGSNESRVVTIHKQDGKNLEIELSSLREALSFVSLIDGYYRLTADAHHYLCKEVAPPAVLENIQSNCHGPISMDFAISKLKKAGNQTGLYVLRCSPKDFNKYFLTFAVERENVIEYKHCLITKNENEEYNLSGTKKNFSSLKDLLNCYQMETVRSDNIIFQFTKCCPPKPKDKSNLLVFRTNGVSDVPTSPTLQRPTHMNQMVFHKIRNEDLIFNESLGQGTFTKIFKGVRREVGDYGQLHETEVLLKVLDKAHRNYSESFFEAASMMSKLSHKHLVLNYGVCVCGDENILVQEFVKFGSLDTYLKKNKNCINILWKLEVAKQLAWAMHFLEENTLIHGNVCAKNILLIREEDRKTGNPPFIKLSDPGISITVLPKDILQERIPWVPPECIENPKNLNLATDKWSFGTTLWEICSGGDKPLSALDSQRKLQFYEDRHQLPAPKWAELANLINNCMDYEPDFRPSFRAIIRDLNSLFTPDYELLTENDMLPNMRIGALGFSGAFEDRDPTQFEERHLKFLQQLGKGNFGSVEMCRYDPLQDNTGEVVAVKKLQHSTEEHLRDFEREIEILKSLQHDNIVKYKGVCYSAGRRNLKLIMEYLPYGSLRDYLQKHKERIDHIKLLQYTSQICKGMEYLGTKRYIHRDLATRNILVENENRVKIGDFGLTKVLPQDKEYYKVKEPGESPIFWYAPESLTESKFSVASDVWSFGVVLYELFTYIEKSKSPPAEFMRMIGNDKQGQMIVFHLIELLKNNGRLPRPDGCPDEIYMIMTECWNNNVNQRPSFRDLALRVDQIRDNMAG
Glycogen synthase kinase-3 beta, sequence (P49841 whole entry): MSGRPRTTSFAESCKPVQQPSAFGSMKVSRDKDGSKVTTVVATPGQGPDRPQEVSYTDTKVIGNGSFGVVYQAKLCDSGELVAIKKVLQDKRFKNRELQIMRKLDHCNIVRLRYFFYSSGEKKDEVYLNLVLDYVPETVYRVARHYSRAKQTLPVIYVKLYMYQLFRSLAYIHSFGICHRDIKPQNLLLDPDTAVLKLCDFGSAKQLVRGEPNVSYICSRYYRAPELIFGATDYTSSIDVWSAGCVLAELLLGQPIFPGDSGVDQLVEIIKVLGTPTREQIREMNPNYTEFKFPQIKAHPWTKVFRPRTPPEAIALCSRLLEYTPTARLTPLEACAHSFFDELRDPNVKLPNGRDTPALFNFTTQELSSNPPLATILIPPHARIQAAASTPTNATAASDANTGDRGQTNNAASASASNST
Tyrosine-protein kinase Lck, sequence (P06239 whole entry): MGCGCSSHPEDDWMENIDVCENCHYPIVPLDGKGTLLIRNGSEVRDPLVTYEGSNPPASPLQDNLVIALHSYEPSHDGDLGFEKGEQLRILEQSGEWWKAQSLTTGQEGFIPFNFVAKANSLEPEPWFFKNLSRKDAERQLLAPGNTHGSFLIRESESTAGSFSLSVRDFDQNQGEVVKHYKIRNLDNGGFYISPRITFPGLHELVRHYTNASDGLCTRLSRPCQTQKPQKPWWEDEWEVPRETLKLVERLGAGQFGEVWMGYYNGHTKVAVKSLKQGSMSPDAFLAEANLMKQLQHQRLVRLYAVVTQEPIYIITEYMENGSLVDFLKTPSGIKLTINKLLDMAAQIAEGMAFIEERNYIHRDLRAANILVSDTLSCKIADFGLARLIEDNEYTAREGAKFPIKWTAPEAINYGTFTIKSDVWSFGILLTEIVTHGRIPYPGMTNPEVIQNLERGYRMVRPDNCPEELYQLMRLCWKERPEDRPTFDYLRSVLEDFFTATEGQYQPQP

Row | SMILES | IC50 [1] | IC50 [2] | IC50 (JAK3/JAK1 [3]) | IC50 [4] | IC50 (JAK1/TYK2) | IC50 (JAK3/JAK1 [5]) | IC50 [6] | pKa [7] | IC50 [8] | IC50 [9] | IC50 (Aurora kinase A) | IC50 [10] | IC50 [11] | IC50 [12] | IC50 [13] | IC50 [14] | microsomal CLint (in vitro)
1 | NC(=O)c1cnc(Nc2ccc(O)cn2)cc1Nc1ccccc1Cl | 20 nM | 14 nM | 525 nM | 20 nM | 290 nM | 218 nM | – | – | – | – | – | – | – | – | – | – | –
2 | COc1cccc(Nc2cc(Nc3ccccc3Cl)c(C(N)=O)cn2)n1 | 89 nM | 103 nM | 2170 nM | 76 nM | 271 nM | 169 nM | 77 nM | – | – | – | – | – | – | – | – | – | –
3 | Cc1cccc(Nc2cc(Nc3ccccc3Cl)c(C(N)=O)cn2)n1 | – | – | – | – | – | – | 60 nM | 6.2 | – | – | – | – | – | – | – | – | –
4 | NC(=O)c1cnc(Nc2cccc(O)n2)cc1Nc1ccccc1Cl | 4560 nM | 3270 nM | > 30000 nM | 3150 nM | > 10000 nM | > 10000 nM | 2090 nM | – | > 2500 nM | > 2500 nM | > 2500 nM | > 2500 nM | > 2500 nM | > 2500 nM | > 2500 nM | > 2500 nM | –
5 | CCOC(=O)Oc1cccc(Nc2cc(Nc3ccccc3Cl)c(C(N)=O)cn2)n1 | 76 nM | 131 nM | > 30000 nM | 52 nM | 71 nM | 116 nM | 59 nM | – | – | – | – | – | – | – | – | – | –
6 | C[C@H]1CN(C(=O)CC#N)[C@]12CCN(c1ncnc3[nH]ccc13)C2 [DELGOCITINIB] | – | – | – | – | – | – | – | – | – | – | – | – | – | – | – | – | < 25 µL/min/mg
